Measurements reported in patent US8835503B2, “Pharmaceutical composition containing GLUR2-lacking AMPAR antagonist for preventing or treating psychiatric illnesses” (SNU R&DB Foundation, priority 2009, dated 2014).

Tested on: fear memory renewal
Assay: Blocking of fear memory renewal by NASPM administered into the amygdala (freezing response)
Type: in vivo, rat
Details: for fear responses (freezing) in memory renewal test: 15 minutes before measuring fear memory, vs control group
Experimental: For fear memory learning, the rats were exposed to sound stimuli of a single tone (2.8 kHz, 85 dB) for 30 seconds, and subjected to an electric foot shock (1.0 mA) for 1 second at the end of said 30-second period. The sound stimuli and the electric foot shock were repeated 3 times at 100 second intervals. 1 minute later after the last electric foot shock, the rats were returned to their home cages. On day 2, fear memory learning was performed in the same way.
From day 3, memory extinction was performed in a context different from that of the fear memory learning On day 4, the rats were exposed to only sound stimuli 20 times at 100 second intervals without an electric foot shock. On days 5 and 6, the sound stimuli were repeated 15 times at 100 second intervals.
On day 7, memory renewal test was performed. The rats experienced memory extinction were placed in the place of the fear memory learning for 10 minutes, and then, memory renewal was induced by exposing the rats to sound stimuli for 30 seconds.
The experiment was performed using the rats which experienced fear memory learning, memory extinction and memory renewal in accordance with the method described in Example 1-1. White rats, 8-9 weeks old (Sprague-Dawley Rat, Male; Samtako, Korea), were used.
The rats were anesthetized by intraperitoneal injection of pentobarbital sodium (50 mg/kg; Entobal, Hanlim Pharma, Co., Ltd., Korea). After fully anesthetized, the rats were mounted on a stereotaxic apparatus (David Kopf Instruments, Tujunga, Calif., USA), and then, stainless steel cannulas of 26 gauge (Model C315G, Plastic Products, Roanoke, Va., USA) were implanted bilaterally into the amygdala (AP; […], ML; +/−5.15, DV; −7.0 mm) by operation. A 32 gauge dummy cannula was inserted into each cannula to prevent clogging. After a recovery period of at least 1 week, the rats were subjected to fear memory learning, memory extinction and memory renewal tests. […]
Conditioned freezing was defined as immobility except for respiratory movements, and was quantified by trained observers that were blind to the experimental groups.

Substance: N-naphthylspermine [NASPM]
- fear responses (freezing) in memory renewal test (10 μg NASPM into the amygdala): insignificant effect
- fear responses (freezing) in memory renewal test (40 μg NASPM into the amygdala): remarkably less fear responses
- blocking of fear memory renewal (administered in the amygdala, 10 μg and 40 μg): blocks the fear memory renewal in a concentration-dependent manner
